Data reported in patent publication US11413278B2, “Compounds and methods for promoting stress resistance” (priority 2015, dated 2022).
“Also recorded” adds a separate entry of the source. Where two headings read alike, the source gives them in different places.

Tests used:
[1] = system: WI-38 cells; experiment: CdCl2 (cadmium) resistance assay; type: cell-based, human; details: for Assay 4: H2O2- & Cd-resistant / Assay 2: Cadmium-resistant: YES/NO; for Assay 2: Cadmium-resistant: * indicates partial; for fold induction at 10 µM: Homo sapiens, 12 h
In short: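 Resistance to CdCl2 or MMS stress (12 h exposure) was scored in WI-38 fibroblasts pretreated with compound at 0.25–20 μM final, five doses, technical triplicates. MMS plates had compound added 24 h before MMS, after a shift to serum-free DMEM+2% BSA. Significance came from a global variance t-test over two independent runs.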

[2] = system: FOXO3; experiment: qPCR analysis of FOXO3-regulated genes; type: cell-based, human; details: for Induction of at least two of five FOXO3-regulated genes (SOD2, GADD45A, CAT, DDB1, TXNIP): WI-38; for K = Sestrin induction: score; for fold induction at 10 µM: Homo sapiens
In short: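 FOXO3 target-gene expression quantified by qPCR normalised to B2M, PPIA and GAPDH, in WI-38 cells after 24 h exposure to 10 μM compound. Some runs used cells first transfected 36 h with 10 nM FOXO3 or NRF2 siRNA and replated ~24 h before dosing.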

[3] = Summary score for characterization of 38 core set hits; details: for D = Triple resistant: 2-point score, multiplex resistance (cadmium, MMS, H2O2); for C = H2O2- & Cd-resistant: score, resistance to both H2O2 and cadmium
In short: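 Each score sums results of individual assays on H2O2-resistance screen hits. Nematode lifespan assays were run in 4 to 6 independent trials and scored up to 2. Key phenotypes such as multiplex resistance, FOXO3/NRF2 activation and mTOR down-regulation were weighted at 2 points, with a deduction for human-cell toxicity.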

[4] = WI-38 cells, 10 μM, both stressors
[5] = score in summary of 38 core set hits
[6] = 10 μM, 24 hrs, WI-38 cells, qPCR, normalized to B2M, n = 4
[7] = WI-38 cells, 10 μM, 24 hrs, n=4, qPCR normalized by B2M
[8] = fold change, qPCR, WI-38 cells, 10 μM, 24 hrs
[9] = qPCR, WI-38 cells, 10 μM, n=4, 24 hrs, normalized by B2M
[10] = Exp. 1, WI-38 cells, 10 uM, normalized ATP measurement, read-out: Exp. 1, under Cd2Cl2 stress treatment, at 10 uM (fold change)
[11] = Exp. 2, WI-38 cells, 10 uM, normalized ATP measurement, read-out: Exp. 2, under Cd2Cl2 stress treatment, at 10 uM (fold change)
[12] = 24 h, Assay 10(m), at 10 uM, qPCR, read-out: Induction of FOXO3-regulated genes: CAT normalized fold-change
[13] = 24 h, Assay 10(m), at 10 uM, qPCR, read-out: Induction of FOXO3-regulated genes: DDB1 normalized fold-change
[14] = 24 h, Assay 10(m), at 10 uM, qPCR, read-out: Induction of FOXO3-regulated genes: GADD45A normalized fold-change
[15] = 10 μM, 24 hrs, WI-38 cells, qPCR, normalized to B2M, n = 4, read-out: CAT expression, normalized fold change (FOXO3-regulated gene)
[16] = 10 μM, 24 hrs, WI-38 cells, qPCR, normalized to B2M, n = 4, read-out: GADD45A expression, normalized fold change (FOXO3-regulated gene)
[17] = WI-38 cells, 10 μM, 24 hrs, n=4, qPCR normalized by B2M, read-out: DDB1 Normalized fold change
[18] = WI-38 cells, 10 μM, 24 hrs, n=4, qPCR normalized by B2M, read-out: GADD45A Normalized fold change
[19] = WI-38 cells, 10 μM, 24 hrs, n=4, qPCR normalized by B2M, read-out: SESN1 Normalized fold change
[20] = fold change, qPCR, WI-38 cells, 10 μM, 24 hrs, read-out: Summary of effects on FOXO3-regulated genes: CAT
[21] = fold change, qPCR, WI-38 cells, 10 μM, 24 hrs, read-out: Summary of effects on FOXO3-regulated genes: GADD45A
[22] = qPCR, WI-38 cells, 10 μM, n=4, 24 hrs, normalized by B2M, read-out: CAT Normalized fold change
[23] = qPCR, WI-38 cells, 10 μM, n=4, 24 hrs, normalized by B2M, read-out: SOD2 Normalized fold change
[24] = qPCR, WI-38 cells, 10 μM, n=4, 24 hrs, normalized by B2M, read-out: TXNIP Normalized fold change

In the case of COc1cc2c(no[n+]2[O-])n2nnnc12 [O11], the CdCl2-resistant [1] is reported as “YES”, the “H2O2- & CdCl2-resistant” value [1] is reported as “YES” and the “Exp. 1, under CdCl2 stress treatment, at 10 uM (fold change)” value ([1]; Exp. 1, WI-38 cells, 10 uM, normalized ATP measurement) is reported as 3.78 fold change. The “Exp. 2, under CdCl2 stress treatment, at 10 uM (fold change)” value ([1]; Exp. 2, WI-38 cells, 10 uM, normalized ATP measurement) was 2.80 fold change, the CdCl2-resistant ([1]; WI-38 cells, 10 μM) was “YES” and the “H2O2- & CdCl2-resistant” value [1, 4] was “YES”. For the same compound, the “Assay 4: H2O2- & Cd-resistant” value [1] was “YES”, the “Assay 2: Cadmium-resistant” value [1] was “YES” and the “A = Cadmium resistant” value [1, 5] was 1. The “A = Cadmium resistant” value ([1]; summary score) was 1, the “C = H2O2- & Cd-resistant” value ([1]; summary score) was 1 and the “Induction of at least two of five FOXO3-regulated genes (SOD2, GADD45A, CAT, DDB1, TXNIP)” value (from here on “Induction … (SOD2, GADD45A, CAT, DDB1, TXNIP)”) ([2]; 10 μM, 24 hrs) was “significant induction; also recorded: significant, induction; also recorded: induce FOXO3-regulated genes”. For the same compound, the “CAT expression, normalized fold change (FOXO3-regulated gene)” value [2, 6] was “CAT 1.41, fold”, the “DDB1 expression, normalized fold change (FOXO3-regulated gene)” value [2, 6] was “DDB1 1.31, fold” and the “SESN1 expression, normalized fold change (FOXO3-regulated gene)” value [2, 6] was “SESN1 1.77, fold”. The “TXNIP expression, normalized fold change (FOXO3-regulated gene)” value [2, 6] was “TXNIP 1.35, fold”, the “E = Potential FOXO3 Activation” value ([2]; 2-point score) was 0 and the “Induction of FOXO3-regulated genes: CAT normalized fold-change” value ([2]; Assay 10(m), at 10 uM, qPCR) was “CAT 1.41, fold-change”. For the same compound, the “Induction of FOXO3-regulated genes: DDB1 normalized fold-change” value ([2]; Assay 10(m), at 10 uM, qPCR) was “DDB1 1.31, fold-change”, the “Induction of FOXO3-regulated genes: SESN1 normalized fold-change” value ([2]; Assay 10(m), at 10 uM, qPCR) was “SESN1 1.77, fold-change” and the “Induction of FOXO3-regulated genes: TXNIP normalized fold-change” value ([2]; Assay 10(m), at 10 uM, qPCR) was “TXNIP 1.35, fold-change”. The “DDB1 Normalized fold change” value [2, 7] was 1.308 fold change, the “GADD45A Normalized fold change” value [2, 7] was 1.431 fold change and the “SESN1 Normalized fold change” value [2, 7] was 1.773 fold change. The “Summary of effects on FOXO3-regulated genes: CAT” value [2, 8] was “CAT 1.41,”, the “Summary of effects on FOXO3-regulated genes: DDB1” value [2, 8] was “DDB1 1.31,” and the “Summary of effects on FOXO3-regulated genes: SESN1” value [2, 8] was “SESN1 1.77,”. For the same compound, the “Summary of effects on FOXO3-regulated genes: TXNIP” value [2, 8] was “TXNIP 1.35,”, the “CAT Normalized fold change” value [2, 9] was 1.410 and the “SOD2 Normalized fold change” value [2, 9] was 1.143. For the same compound, the “TXNIP Normalized fold change” value [2, 9] was 1.346, the “K = Sestrin induction” value [2] was 1 and the “E = Potential FOXO3 Activation” value ([2]; summary score) was 0. For the same compound, the “D = Triple resistant” value [3] was 0, the “C = H2O2- & Cd-resistant” value [3] was 1 and the “S = Sum of Negative scores” value ([3]; sum of columns Q and R) was 1.

For CCCC(=O)Nc1ccc(-c2cn3cccc(C)c3n2)cc1 [O12], the CdCl2-resistant [1] was “YES”, the “H2O2- & CdCl2-resistant” value [1] was “YES” and the fold induction at 10 µM [1, 10] was 1.36. The fold induction at 10 µM [1, 11] was 1.59, the CdCl2-resistant ([1]; WI-38 cells, 10 μM) was “YES” and the “H2O2- & CdCl2-resistant” value [1, 4] was “YES”. The “Assay 2: Cadmium-resistant” value [1] was “NO *”, the “A = Cadmium resistant” value [1, 5] was 1 and the “A = Cadmium resistant” value ([1]; summary score) was 0. For the same compound, the “C = H2O2- & Cd-resistant” value ([1]; summary score) was 0, the “Induction … (SOD2, GADD45A, CAT, DDB1, TXNIP)” value ([2]; 10 μM, 24 hrs) was “significant induction” and the “SOD2 expression, normalized fold change (FOXO3-regulated gene)” value [2, 6] was “SOD2 1.52, fold”. For the same compound, the “E = Potential FOXO3 Activation” value ([2]; 2-point score) was 2, the fold induction at 10 µM [2, 12] was 0.82 and the fold induction at 10 µM [2, 13] was 0.86. For the same compound, the fold induction at 10 µM [2, 14] was 1.44, the fold induction at 10 µM ([2]; 24 h, Assay 10(m), at 10 uM, qPCR, read-out: Induction of FOXO3-regulated genes: SOD2 normalized fold-change) was 1.35 and the fold induction at 10 µM [2, 15] was 0.8. For the same compound, the fold induction at 10 µM [2, 16] was 1.69, the fold induction at 10 µM [2, 17] was 1.02 and the fold induction at 10 µM [2, 18] was 1.69. The fold induction at 10 µM [2, 19] was 1.05, the fold induction at 10 µM [2, 20] was 0.8 and the fold induction at 10 µM [2, 21] was 1.69. It also gave a fold induction at 10 µM [2, 22] of 0.802, a fold induction at 10 µM [2, 23] of 1.52 and a fold induction at 10 µM [2, 24] of 0.909. The “Summary of effects on FOXO3-regulated genes: SOD2” value [2, 8] was “SOD2 1.52,”, the “K = Sestrin induction” value [2] was 0 and the “E = Potential FOXO3 Activation” value ([2]; summary score) was 0. The “D = Triple resistant” value [3] was 0, the “S = Sum of Negative scores” value ([3]; human) was 0 and the “C = H2O2- & Cd-resistant” value [3] was 1.

With O=C(c1ccc([N+](=O)[O-])o1)N1CCc2ccccc21 [O13] the fold induction at 10 µM [1, 10] was 1.27, the fold induction at 10 µM [1, 11] was 1.55 and the “Assay 4: H2O2- & Cd-resistant” value [1] was “YES”. The “Assay 2: Cadmium-resistant” value [1] was “YES”, the “A = Cadmium resistant” value [1, 5] was 0 and the “A = Cadmium resistant” value ([1]; summary score) was 1. The “C = H2O2- & Cd-resistant” value ([1]; summary score) was 1, the “Induction … (SOD2, GADD45A, CAT, DDB1, TXNIP)” value ([2]; 10 μM, 24 hrs) was “significant induction; also recorded: significant, induction” and the “E = Potential FOXO3 Activation” value ([2]; 2-point score) was 0. The fold induction at 10 µM [2, 12] was 1.33, the fold induction at 10 µM [2, 13] was 1.27 and the fold induction at 10 µM [2, 14] was 1.2. It also gave a fold induction at 10 µM [2, 15] of 1.33, a fold induction at 10 µM ([2]; 10 μM, 24 hrs, WI-38 cells, qPCR, normalized to B2M, n = 4, read-out: DDB1 expression, normalized fold change (FOXO3-regulated gene)) of 1.27 and a fold induction at 10 µM [2, 16] of 1.2. For the same compound, the fold induction at 10 µM [2, 17] was 1.27, the fold induction at 10 µM [2, 18] was 1.2 and the fold induction at 10 µM [2, 19] was 1.23. For the same compound, the fold induction at 10 µM [2, 20] was 1.33, the fold induction at 10 µM ([2]; fold change, qPCR, WI-38 cells, 10 μM, 24 hrs, read-out: Summary of effects on FOXO3-regulated genes: DDB1) was 1.27 and the fold induction at 10 µM [2, 21] was 1.2. For the same compound, the fold induction at 10 µM [2, 22] was 1.32, the fold induction at 10 µM [2, 23] was 1.09 and the fold induction at 10 µM [2, 24] was 0.907. The “K = Sestrin induction” value [2] was 0, the “E = Potential FOXO3 Activation” value ([2]; summary score) was 0 and the “D = Triple resistant” value [3] was 0. For the same compound, the “S = Sum of Negative scores” value ([3]; human) was 0 and the “C = H2O2- & Cd-resistant” value [3] was 0.
